Measurements published in patent US20230141603A1, “BENZODIAZEPINE DERIVATIVES AS GABA A GAMMA1 PAM” (Hoffmann-La Roche Inc., priority 2021, published 2023).

Assays:
h-GABAA α1β2γ1 = biological target: T1, h-GABAA α1β2γ1 (Homo sapiens, UniProt P14867+Q8N1C3); experiment: Radioligand binding assay, [3H]RO7239181 competition, HEK293F membranes
T1 construct: expressed in transfected cells; host or cells: HEK293F cells (ThermoFisher R79007), membranes
T1 sequence (P14867 28-456): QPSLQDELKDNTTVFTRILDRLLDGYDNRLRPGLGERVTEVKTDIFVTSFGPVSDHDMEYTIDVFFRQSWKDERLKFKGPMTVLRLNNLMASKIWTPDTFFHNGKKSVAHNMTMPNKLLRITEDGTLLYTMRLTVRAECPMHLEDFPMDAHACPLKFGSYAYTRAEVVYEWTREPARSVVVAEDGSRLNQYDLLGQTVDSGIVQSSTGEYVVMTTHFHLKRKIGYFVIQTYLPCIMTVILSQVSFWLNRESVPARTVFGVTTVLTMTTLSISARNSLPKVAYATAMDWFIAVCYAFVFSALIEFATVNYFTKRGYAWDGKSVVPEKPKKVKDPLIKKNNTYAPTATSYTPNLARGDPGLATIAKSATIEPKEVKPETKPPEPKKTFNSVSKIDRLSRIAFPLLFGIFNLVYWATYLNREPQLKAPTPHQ
T1 sequence (P47870 25-512 partner limits assumed): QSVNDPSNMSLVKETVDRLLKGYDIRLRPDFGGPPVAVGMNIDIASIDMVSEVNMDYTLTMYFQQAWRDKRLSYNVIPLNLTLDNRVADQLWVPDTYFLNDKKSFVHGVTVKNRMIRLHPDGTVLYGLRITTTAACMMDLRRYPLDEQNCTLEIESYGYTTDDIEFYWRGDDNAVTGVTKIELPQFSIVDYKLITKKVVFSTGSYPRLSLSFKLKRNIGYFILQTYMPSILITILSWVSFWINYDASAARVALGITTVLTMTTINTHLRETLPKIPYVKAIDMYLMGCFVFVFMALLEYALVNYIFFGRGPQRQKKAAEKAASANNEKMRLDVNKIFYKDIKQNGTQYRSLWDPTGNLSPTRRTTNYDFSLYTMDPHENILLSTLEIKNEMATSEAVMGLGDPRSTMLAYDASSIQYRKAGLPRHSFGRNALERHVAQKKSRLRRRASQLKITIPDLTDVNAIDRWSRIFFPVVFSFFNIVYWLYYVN
T1 sequence (Q8N1C3 36-465): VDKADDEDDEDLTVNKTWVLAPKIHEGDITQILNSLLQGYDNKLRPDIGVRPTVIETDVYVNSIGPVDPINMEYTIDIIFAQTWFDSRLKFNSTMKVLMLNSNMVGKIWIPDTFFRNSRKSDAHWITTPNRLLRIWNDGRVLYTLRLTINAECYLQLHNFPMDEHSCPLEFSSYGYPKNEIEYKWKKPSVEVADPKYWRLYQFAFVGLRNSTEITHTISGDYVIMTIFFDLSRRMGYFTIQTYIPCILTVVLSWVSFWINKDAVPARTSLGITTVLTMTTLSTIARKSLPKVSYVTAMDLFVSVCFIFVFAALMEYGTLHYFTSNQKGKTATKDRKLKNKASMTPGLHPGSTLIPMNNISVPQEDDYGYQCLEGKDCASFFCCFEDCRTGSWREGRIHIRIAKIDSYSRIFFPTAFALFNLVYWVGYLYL

h-GABAA α1β3γ2 = biological target: T2, h-GABAA α1β3γ2 (Homo sapiens, UniProt P14867+P18507); experiment: Radioligand binding assay, [3H]Flumazenil competition, HEK293F membranes; conditions: for γ2/γ1 Selectivity Ratio: Ki α1β3γ2 (nM)/Ki α2β2γ1 (nM); for LogSel: Log[Ki α1β3γ2 (nM)/Ki α2β2γ1 (nM)]
T2 construct: expressed in transfected cells; host or cells: HEK293F cells, membranes
Procedure, shortened: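 [3H]Flumazenil competition binding on membranes from HEK293F cells transiently expressing human α1β3γ2 receptors. Incubation to equilibrium for 1 h at 4 °C, then filtration and scintillation counting. Ki is the mean of two determinations.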

Row | SMILES | Ki (h-GABAA α1β2γ1) | Ki (h-GABAA α1β3γ2) | γ2/γ1 Selectivity Ratio (h-GABAA α1β3γ2; Table 1) | LogSel (h-GABAA α1β3γ2; Table 1) | LogSel (h-GABAA α1β3γ2; Table 3)
1 | CC(F)(F)c1ccc2c(c1Cl)C(c1c(F)cccc1F)=NCc1nncn1-2 [Example 21, 7-chloro-8-(1,1-difluoroethyl)-6-(2,6-difluorophenyl)-4H-[1,2,4]triazolo[4,3-a][1,4]benzodiazepine] | 90.5 nM | 1790 nM | 34.5 | 1.54 | –
2 | Cc1nnc2n1-c1ccc(Cl)c(Cl)c1C(c1ncccc1F)=NC2 [Example 71, 7,8-dichloro-6-(3-fluoro-2-pyridyl)-1-methyl-4H-[1,2,4]triazolo[4,3-a][1,4]benzodiazepine] | 178 nM | 1080 nM | 28.7 | 1.46 | –
3 | Clc1cccnc1C1=NCc2nnc(-c3cccnn3)n2-c2ccc(Br)c(Cl)c21 [Example 47, 8-bromo-7-chloro-6-(3-chloro-2-pyridyl)-1-pyridazin-3-yl-4H-[1,2,4]triazolo[4,3-a][1,4]benzodiazepine] | 7 nM | 222 nM | 14.0 | 1.15 | –
4 | Fc1ccccc1C1=NCc2nnc(-c3cccnn3)n2-c2ccc(Br)c(Cl)c21 [Example 3, 8-bromo-7-chloro-6-(2-fluorophenyl)-1-pyridazin-3-yl-4H-[1,2,4]triazolo[4,3-a][1,4]benzodiazepine] | 26.1 nM | 453 nM | 51.2 | 1.71 | –
5 | COc1ccc2c(c1Cl)C(c1c(F)cccc1F)=NCc1nnc(-c3ccncn3)n1-2 [Example 61, 7-chloro-6-(2,6-difluorophenyl)-8-methoxy-1-pyrimidin-4-yl-4H-[1,2,4]triazolo[4,3-a][1,4]benzodiazepine] | 119 nM | 2140 nM | 27.6 | 1.44 | –
6 | COc1ccc2c(c1Cl)C(c1c(F)cccc1F)=NCc1nnc(C3CC3)n1-2 [Example 79, 7-chloro-1-cyclopropyl-6-(2,6-difluorophenyl)-8-methoxy-4H-[1,2,4]triazolo[4,3-a][1,4]benzodiazepine] | 80.1 nM | 914 nM | 17.8 | 1.25 | –
7 | Cn1cc(-c2nnc3n2-c2ccc(C(F)(F)F)c(Cl)c2C(c2ncccc2F)=NC3)cn1 [Example 70, 7-chloro-6-(3-fluoro-2-pyridyl)-1-(1-methylpyrazol-4-yl)-8-(trifluoromethyl)-4H-[1,2,4]triazolo[4,3-a][1,4]benzodiazepine] | 275 nM | 5980 nM | 144.5 | 2.16 | –
8 | Cc1ccc2c(c1Cl)C(c1c(F)cccc1F)=NCc1n[nH]c(=O)n1-2 [Example 16, 7-chloro-6-(2,6-difluorophenyl)-8-methyl-2,4-dihydro-[1,2,4]triazolo[4,3-a][1,4]benzodiazepin-1-one] | 22.7 nM | 666 nM | 25.1 | 1.40 | –
9 | Cc1nnc2n1-c1ccc(Br)c(Cl)c1C(c1ncccc1F)=NC2 [Example 24, 8-bromo-7-chloro-6-(3-fluoro-2-pyridyl)-1-methyl-4H-[1,2,4]triazolo[4,3-a][1,4]benzodiazepine] | 43.6 nM | 608 nM | 25.0 | 1.40 | –
10 | Fc1ccccc1C1=NCc2nncn2-c2ccc(Br)c(Cl)c21 [Example 8, 8-bromo-7-chloro-6-(2-fluorophenyl)-4H-[1,2,4]triazolo[4,3-a][1,4]benzodiazepine] | 43.8 nM | 576 nM | 12.1 | 1.08 | –
11 | Cc1ccc2c(c1Cl)C(c1c(F)cccc1F)=NCc1nnc(C)n1-2 [Example 20, 7-chloro-6-(2,6-difluorophenyl)-1,8-dimethyl-4H-[1,2,4]triazolo[4,3-a][1,4]benzodiazepine] | 37.1 nM | 289 nM | 12.2 | 1.09 | –
12 | Fc1cccnc1C1=NCc2nnc(-c3ccncn3)n2-c2ccc(Br)c(Cl)c21 [Example 46, 8-bromo-7-chloro-6-(3-fluoro-2-pyridyl)-1-pyrimidin-4-yl-4H-[1,2,4]triazolo[4,3-a][1,4]benzodiazepine] | 60.5 nM | 1160 nM | 45.8 | 1.66 | –
13 | Cc1ncc2n1-c1ccc(Cl)cc1C(c1ccccc1F)=NC2 [Midazolam, reference compound] | 1150 nM | 5 nM | – | – | −2.2
14 | Cl.NCc1nnc2n1-c1ccc(Br)c(Cl)c1C(c1c(F)cccc1F)=NC2 [Example 36, [8-bromo-7-chloro-6-(2,6-difluorophenyl)-4H-[1,2,4]triazolo[4,3-a][1,4]benzodiazepin-1-yl]methanamine hydrochloride] | 11.9 nM | 180 nM | 21.2 | 1.33 | –
15 | Fc1cccc(F)c1C1=NCc2nncn2-c2ccc(C(F)F)c(Cl)c21 [Example 23, 7-chloro-8-(difluoromethyl)-6-(2,6-difluorophenyl)-4H-[1,2,4]triazolo[4,3-a][1,4]benzodiazepine] | 63.9 nM | 1200 nM | 22.0 | 1.34 | –
16 | COc1ccc2c(c1Cl)C(c1c(F)cccc1F)=NCc1nnc(-c3cccnn3)n1-2 [Example 57, 7-chloro-6-(2,6-difluorophenyl)-8-methoxy-1-pyridazin-3-yl-4H-[1,2,4]triazolo[4,3-a][1,4]benzodiazepine] | 170 nM | 2110 nM | 36.5 | 1.56 | –
17 | O=c1[nH]nc2n1-c1ccc(Cl)c(Cl)c1C(c1c(F)cccc1F)=NC2 [Example 9, 7,8-dichloro-6-(2,6-difluorophenyl)-2,4-dihydro-[1,2,4]triazolo[4,3-a][1,4]benzodiazepin-1-one] | 7.3 nM | 396 nM | 49.7 | 1.70 | –
18 | Fc1cccnc1C1=NCc2nnc(-c3ccncn3)n2-c2ccc(Cl)c(Cl)c21 [Example 55, 7,8-dichloro-6-(3-fluoro-2-pyridyl)-1-pyrimidin-4-yl-4H-[1,2,4]triazolo[4,3-a][1,4]benzodiazepine] | 133 nM | 1720 nM | 92.9 | 1.97 | –
19 | CO[C@H]1C[C@H](c2nnc3n2-c2ccc(Cl)c(Cl)c2C(c2c(F)cccc2F)=NC3)C1 [Example 91, trans-7,8-dichloro-6-(2,6-difluorophenyl)-1-(3-methoxycyclobutyl)-4H-[1,2,4]triazolo[4,3-a][1,4]benzodiazepine] | 51.3 nM | 1340 nM | 36.8 | 1.57 | –
20 | Fc1cccc(F)c1C1=NCc2nncn2-c2ccc(Cl)c(Cl)c21 [Example 15, 7,8-dichloro-6-(2,6-difluorophenyl)-4H-[1,2,4]triazolo[4,3-a][1,4]benzodiazepine] | 11.5 nM | 249 nM | 28.7 | 1.46 | –
21 | Cc1nnc2n1-c1ccc(C(F)F)c(Cl)c1C(c1c(F)cccc1F)=NC2 [Example 25, 7-chloro-8-(difluoromethyl)-6-(2,6-difluorophenyl)-1-methyl-4H-[1,2,4]triazolo[4,3-a][1,4]benzodiazepine] | 68.6 nM | 1190 nM | 24.2 | 1.38 | –
22 | Fc1cccc(F)c1C1=NCc2nnc(C3CCOCC3)n2-c2ccc(Cl)c(Cl)c21 [Example 11, 7,8-dichloro-6-(2,6-difluorophenyl)-1-tetrahydropyran-4-yl-4H-[1,2,4]triazolo[4,3-a][1,4]benzodiazepine] | 60.3 nM | 690 nM | 14.1 | 1.15 | –
